Measured values reported in ChEMBL document CHEMBL3120140, “Balgacyclamides, antiplasmodial heterocyclic peptides from Microcystis aeruguinosa EAWAG 251” (J Nat Prod, 2014).

Assays:
[1] = tested on: Trypanosoma brucei rhodesiense; test: Antitrypanosomal activity against Trypanosoma brucei rhodesiense STIB 900 after 72 hrs by Alamar blue assay; format: functional, organism-based; details: STIB 900, 72 h
L6 = test: Cytotoxicity against rat L6 cells after 72 hrs by Alamar blue assay; format: cell-based; details: L6, 72 h
Leishmania donovani = test: Antileishmanial activity against Leishmania donovani MHOM-ET-67/L82; format: functional, organism-based
Plasmodium falciparum = test: Antiplasmodial activity against chloroquine-resistant Plasmodium falciparum K1 infected in human RBC after 48 hrs by [3H]-hypoxanthine incorporation assay; format: functional, organism-based
Trypanosoma cruzi = test: Antitrypanosomal activity against Trypanosoma cruzi Tulahuen C4; format: functional, organism-based

| SMILES | IC50 [1] [µM] | IC50 (L6) [µM] | IC50 (Leishmania donovani) [µM] | IC50 (Plasmodium falciparum) [µM] | IC50 (Trypanosoma cruzi) [µM] |
| --- | --- | --- | --- | --- | --- |
| CC[C@H](C)[C@H]1NC(=O)[C@H]2N=C(O[C@@H]2C)[C@H](C(C)C)NC(=O)[C@H]2N=C(O[C@@H]2C)[C@@H](C)NC(=O)c2csc1n2 | 59 | > 150 | > 150 | 9 | > 150 |
| CC[C@H](C)[C@H]1NC(=O)[C@H]2N=C(O[C@@H]2C)[C@H](C(C)C)NC(=O)[C@H]([C@@H](C)O)NC(=O)[C@@H](C)NC(=O)c2csc1n2 | 51 | > 150 | 28 | 8.2 | > 150 |
